This passage reports IC50 results from patent publication US12564638B2 (SHANGHAITECH UNIVERSITY, priority 2019, dated 2026).

pIC50: −log10 of the molar value. Read-outs that look alike come from different tables or passages of the source.

Test [1] deals with HCC827 cells (EGFR Exon19 del, non-small cell lung cancer cells). The test can be described thus: Cell viability assay (WST/CCK8), HCC827 cells. It counts as cell-based. The following applies: Homo sapiens, HCC827, 72 h, HCC827 (Exon19 Del), 72 hours, read-out: IC50 (half inhibitory concentration). Summed up: (§1)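 Plated 3 000 cells/well in complete RPMI1640 the day before dosing; controls were DMSO (negative) and EGFR TKIs (positive).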

In test [2] the test system is PC9 cells (EGFR Exon 19 del, non-small cell lung cancer cells). Kind of test: Cell viability assay (WST/CCK8), PC9 cells. It counts as cell-based. Particulars: Homo sapiens, PC-9, PC9 (Exon19 Del), 72 hours, read-out: IC50 (half inhibitory concentration). Summed up:
as §1

Where [3] appears, read: Table 6, canertinib-based compounds, WST.

For the compound `C=CC(=O)Nc1cc2c(Nc3ccc(F)c(Cl)c3)ncnc2cc1OCCCN1CCN(C(=O)CCC(=O)NCCNc2cccc3c2C(=O)N(C2CCC(=O)NC2=O)C3=O)CC1` (stereo not shown) [SIAIS249100, 4-(4-(3-((6-acrylamido-4-((3-chloro-4-fluorophenyl)amino)quinazolin-7-yl)oxy)propyl)piperazin-1-yl)-N-(2-((2-(2,6-dioxopiperidin-3-yl)-1,3-dioxoisoindolin-4-yl)amino)ethyl)-4-oxobutanamide], the pIC50 in test [1] (setting [3]) was 7.39; in test [2] (setting [3]), 7.05.
Consider `COc1cc2ncnc(Nc3ccc(F)c(Cl)c3)c2cc1NC(=O)/C=C/CN1CCC(N2CCN(C(=O)CCCCCOc3cccc4c3CN(C3CCC(=O)NC3=O)C4=O)CC2)CC1` (stereo not shown) [SIAIS337027, (E)-N-(4-((3-chloro-4-fluorophenyl)amino)-7-methoxyquinazolin-6-yl)-4-(4-(4-(6-((2-(2,6-dioxopiperidin-3-yl)-1-oxoisoindolin-4-yl)oxy)hexanoyl)piperazin-1-yl)piperidin-1-yl)but-2-enamide], for which the figures for the pIC50 in test [1] (WST (CCK8)) and in test [2] (WST (CCK8)) were 8.96 and 7.88, respectively.
In the case of `COc1cc2ncnc(Nc3ccc(F)c(Cl)c3)c2cc1NC(=O)/C=C/CN1CCC(N2CCN(C(=O)CCCCCNc3cccc4c3CN(C3CCC(=O)NC3=O)C4=O)CC2)CC1` (stereo not shown) [SIAIS337035, (E)-N-(4-((3-chloro-4-fluorophenyl)amino)-7-methoxyquinazolin-6-yl)-4-(4-(4-(6-((2-(2,6-dioxopiperidin-3-yl)-1-oxoisoindolin-4-yl)amino)hexanoyl)piperazin-1-yl)piperidin-1-yl)but-2-enamide], the values for the pIC50 in test [1] (WST (CCK8)) and in test [2] (WST (CCK8)) were 8.37 and 8.20, respectively.
With `COc1cc2ncnc(Nc3ccc(F)c(Cl)c3)c2cc1NC(=O)/C=C/CN1CCC(NC(=O)CCCSc2cccc3c2CN(C2CCC(=O)NC2=O)C3=O)CC1` (stereo not shown) [SIAIS262112, (E)-N-(4-((3-chloro-4-fluorophenyl)amino)-7-methoxyquinazolin-6-yl)-4-(4-(4-((2-(2,6-dioxopiperidin-3-yl)-1-oxoisoindolin-4-yl)thio)butanamido)piperidin-1-yl)but-2-enamide], the pIC50 in test [1] (WST (CCK8)) was 7.85; in test [2] (WST (CCK8)) it was 7.37.
For `COc1cc2ncnc(Nc3ccc(F)c(Cl)c3)c2cc1NC(=O)/C=C/CN1CCN(C(=O)CCCSc2cccc3c2CN(C2CCC(=O)NC2=O)C3=O)CC1` (stereo not shown) [SIAIS219187, (E)-N-(4-((3-chloro-4-fluorophenyl)amino)-7-methoxyquinazolin-6-yl)-4-(4-(4-((2-(2,6-dioxopiperidin-3-yl)-1-oxoisoindolin-4-yl)thio)butanoyl)piperazin-1-yl)but-2-enamide] the same measures were 8.17 and 7.48.
With `C=CC(=O)Nc1cc2c(Nc3ccc(F)c(Cl)c3)ncnc2cc1OCCCN1CCN(C(=O)CCN2CCN(CCC(=O)N[C@H](C(=O)N3C[C@H](O)C[C@H]3C(=O)NCc3ccc(-c4scnc4C)cc3)C(C)(C)C)CC2)CC1` [SIAIS249101, (2S,4R)-1-((S)-2-(3-(4-(3-(4-(3-((6-acrylamido-4-((3-chloro-4-fluorophenyl)amino)quinazolin-7-yl)oxy)propyl)piperazin-1-yl)-3-oxopropyl)piperazin-1-yl)propanamido)-3,3-dimethylbutanoyl)-4-hydroxy-N-(4-(4-methylthiazol-5-yl)benzyl)pyrrolidine-2-carboxamide], the figures for the pIC50 in test [1] (setting [3]) and in test [2] (setting [3]) were 7.15 and 7.23, respectively.
As to `COc1cc2ncnc(Nc3ccc(F)c(Cl)c3)c2cc1NC(=O)/C=C/CN1CCC(N2CCN(Cc3ccc(CSc4cccc5c4CN(C4CCC(=O)NC4=O)C5=O)cc3)CC2)CC1` (stereo not shown) [SIAIS337021, (E)-N-(4-((3-chloro-4-fluorophenyl)amino)-7-methoxyquinazolin-6-yl)-4-(4-(4-(4-(((2-(2,6-dioxopiperidin-3-yl)-1-oxoisoindolin-4-yl)thio)methyl)benzyl)piperazin-1-yl)piperidin-1-yl)but-2-enamide], the pIC50 was 8.89 in test [1] (WST (CCK8)) and 7.13 in test [2] (WST (CCK8)).
Take `COc1cc2ncnc(Nc3ccc(F)c(Cl)c3)c2cc1NC(=O)/C=C/CN1CCN(C(=O)CCCCCNc2cccc3c2CN(C2CCC(=O)NC2=O)C3=O)CC1` (stereo not shown) [SIAIS249059, (E)-N-(4-((3-chloro-4-fluorophenyl)amino)-7-methoxyquinazolin-6-yl)-4-(4-(6-((2-(2,6-dioxopiperidin-3-yl)-1-oxoisoindolin-4-yl)amino)hexanoyl)piperazin-1-yl)but-2-enamide]: the figures for the pIC50 in test [1] (WST (CCK8)) and in test [2] (WST (CCK8)) were 7.95 and 8.92, respectively.
For `COc1cc2ncnc(Nc3ccc(F)c(Cl)c3)c2cc1NC(=O)/C=C/CN1CCN(C(=O)CCCSc2cccc3c2C(=O)N(C2CCC(=O)NC2=O)C3=O)CC1` (stereo not shown) [SIAIS249036, (E)-N-(4-((3-chloro-4-fluorophenyl)amino)-7-methoxyquinazolin-6-yl)-4-(4-(4-((2-(2,6-dioxopiperidin-3-yl)-1,3-dioxoisoindolin-4-yl)thio)butanoyl)piperazin-1-yl)but-2-enamide], in that order: 8.09 and 7.32.
For `COc1cc2ncnc(Nc3ccc(F)c(Cl)c3)c2cc1NC(=O)/C=C/CN1CCN(C(=O)CCCCCSc2cccc3c2CN(C2CCC(=O)NC2=O)C3=O)CC1` (stereo not shown) [SIAIS219189, (E)-N-(4-((3-chloro-4-fluorophenyl)amino)-7-methoxyquinazolin-6-yl)-4-(4-(6-((2-(2,6-dioxopiperidin-3-yl)-1-oxoisoindolin-4-yl)thio)hexanoyl)piperazin-1-yl)but-2-enamide] the same measures were 8.42 and 8.04.
With `COc1cc2ncnc(Nc3ccc(F)c(Cl)c3)c2cc1NC(=O)/C=C/CN1CCN(C(=O)CSc2cccc3c2C(=O)N(C2CCC(=O)NC2=O)C3=O)CC1` (stereo not shown) [SIAIS249034, (E)-N-(4-((3-chloro-4-fluorophenyl)amino)-7-methoxyquinazolin-6-yl)-4-(4-(2-((2-(2,6-dioxopiperidin-3-yl)-1,3-dioxoisoindolin-4-yl)thio)acetyl)piperazin-1-yl)but-2-enamide], the figures for the pIC50 in test [1] (WST (CCK8)) and in test [2] (WST (CCK8)) were 7.64 and 6.78, respectively.
As for `COc1cc2ncnc(Nc3ccc(F)c(Cl)c3)c2cc1NC(=O)/C=C/CN1CCN(C(=O)CCOCCOCCC(=O)N[C@H](C(=O)N2C[C@H](O)C[C@H]2C(=O)NCc2ccc(-c3scnc3C)cc2)C(C)(C)C)CC1` [SIAIS249045, (2S,4R)-1-((S)-2-(3-(2-(3-(4-((E)-4-((4-((3-chloro-4-fluorophenyl)amino)-7-methoxyquinazolin-6-yl)amino)-4-oxobut-2-en-1-yl)piperazin-1-yl)-3-oxopropoxy)ethoxy)propanamido)-3,3-dimethylbutanoyl)-4-hydroxy-N-(4-(4-methylthiazol-5-yl)benzyl)pyrrolidine-2-carboxamide], the pIC50 in test [1] (WST (CCK8)) is 7.38; in test [2] (WST (CCK8)), 6.16.
Take `COc1cc2ncnc(Nc3ccc(F)c(Cl)c3)c2cc1NC(=O)/C=C/CN1CCN(C(=O)COCCOCCSc2cccc3c2CN(C2CCC(=O)NC2=O)C3=O)CC1` (stereo not shown) [SIAIS262001, (E)-N-(4-((3-chloro-4-fluorophenyl)amino)-7-methoxyquinazolin-6-yl)-4-(4-(2-(2-(2-((2-(2,6-dioxopiperidin-3-yl)-1-oxoisoindolin-4-yl)thio)ethoxy)ethoxy)acetyl)piperazin-1-yl)but-2-enamide]: the pIC50 in test [1] (WST (CCK8)) is 7.57; in test [2] (WST (CCK8)), 7.28.
For `COc1cc2ncnc(Nc3ccc(F)c(Cl)c3)c2cc1NC(=O)/C=C/CN1CCN(C(=O)CNc2cccc3c2C(=O)N(C2CCC(=O)NC2=O)C3=O)CC1` (stereo not shown) [SIAIS219194, (E)-N-(4-((3-chloro-4-fluorophenyl)amino)-7-methoxyquinazolin-6-yl)-4-(4-(2-((2-(2,6-dioxopiperidin-3-yl)-1,3-dioxoisoindolin-4-yl)amino)acetyl)piperazin-1-yl)but-2-enamide], in that order: 8.28 and 8.40.
On to `COc1cc2ncnc(Nc3ccc(F)c(Cl)c3)c2cc1NC(=O)/C=C/CN1CCC(N2CCN(C(=O)CCCCCCOc3cccc4c3CN(C3CCC(=O)NC3=O)C4=O)CC2)CC1` (stereo not shown) [SIAIS337028, (E)-N-(4-((3-chloro-4-fluorophenyl)amino)-7-methoxyquinazolin-6-yl)-4-(4-(4-(7-((2-(2,6-dioxopiperidin-3-yl)-1-oxoisoindolin-4-yl)oxy)heptanoyl)piperazin-1-yl)piperidin-1-yl)but-2-enamide], for which the results for the pIC50 in test [1] (WST (CCK8)) and in test [2] (WST (CCK8)) were 9.05 and 7.69, respectively.
In the case of `COc1cc2ncnc(Nc3ccc(F)c(Cl)c3)c2cc1NC(=O)/C=C/CN1CCNCC1` [Dacomitinib derivative A, (E)-N-(4-((3-chloro-4-fluorophenyl)amino)-7-methoxyquinazolin-6-yl)-4-(piperazin-1-yl)but-2-enamide], the pIC50 was 8.40 in test [1] (WST (CCK8)) and 8.01 in test [2] (WST (CCK8)).
In the case of `COc1cc2ncnc(Nc3ccc(F)c(Cl)c3)c2cc1NC(=O)/C=C/CN1CCC(N2CCN(C(=O)CCC(=O)NCCOCCNc3cccc4c3C(=O)N(C3CCC(=O)NC3=O)C4=O)CC2)CC1` (stereo not shown) [SIAIS249103, (E)-N-(4-((3-chloro-4-fluorophenyl)amino)-7-methoxyquinazolin-6-yl)-4-(4-(4-(4-((2-(2-((2-(2,6-dioxopiperidin-3-yl)-1,3-dioxoisoindolin-4-yl)amino)ethoxy)ethyl)amino)-4-oxobutanoyl)piperazin-1-yl)piperidin-1-yl)but-2-enamide], the pIC50 in test [1] (WST (CCK8)) is 7.89; in test [2] (WST (CCK8)) it was 7.69.
